Laboratory results reported in publication PMC10447463, “Data-mining unveils structure–property–activity correlation of viral infectivity enhancing self-assembling peptides” (Nature Communications, 2023).
Read-outs that look alike come from different tables or passages of the source.

Experiments:
Assay type in all cases: physicochemical
[1] = Zeta-potential measurement; conditions: for Zeta pot. / mV: 1 mg/mL in PBS pH 7.4 from 10 mg/mL DMSO stock, 1 d RT, 60 µL diluted in 600 µL 1 mM KCl, Zetasizer Nano ZS, Smoluchowski, mean of triplicate; for Zeta-pot. / mV: zeta potential of peptide, Fig S15 source data
Method in brief: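 Peptides diluted from DMSO stock into PBS pH 7.4 to 1 mg/mL and aged 1 d at RT, then diluted into 1 mM aqueous KCl. Zeta potential derived from electrophoretic mobility via Smoluchowski; triplicates, averaged over two independent experiments.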

[2] = Turbidity, derived count rate of scattered light; conditions: for Count Rate / kcps: derived count rate of scattered light at 633 nm, 173°, from zeta-potential measurement, 0.1 mg/mL in 1 mM KCl after 1 d at 1 mg/mL in PBS, turbidity / microscopic aggregation, mean of triplicate; for Log Count Rate: log of derived count rate; for Count Rate: turbidity
Method in brief: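 Samples: 1 mg/mL in PBS pH 7.4 (from DMSO), 1 d at RT, then diluted in 1 mM KCl immediately before measurement. Triplicates, two independent runs averaged.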

[3] = Turbidity, derived count rate of scattered light; conditions: log10 of derived count rate of scattered light, Figure 7B
[4] = Fig S8 panels A, C, asymmetric log errors
[5] = Fig S8 panels B, D, derived count rate of scattered light
[6] = derived count rate from zeta measurement, mean
[7] = log10 of derived count rate of scattered light, Figure 6C
[8] = logarithm of count rate in kcps
[9] = derived count rate of scattered light, mean, std deviation in separate column
[10] = derived count rate of scattered light

Substance | Count Rate / kcps [2] | Zeta category ( +1 = if > 4 mV;-1 = if < -4 mV; 0 = -4mV to 4 mV) [1] | Zeta Pot. / mV ([1]; mean, Std in separate column) | Zeta-pot. / mV [1] | Zeta Pot. / mV [1] | Zeta Count Rate Category ([2]; category 1 / 0, no key given) | Zeta Count Rate / kcps [2, 10] | also measured
LASLIYR [reference compound] | 105 kcps | – | – | – | – | – | – | Zeta pot. / mV [1]: -5.0 mV; Zeta-Potential / mV ([1]; mean, Figure 7B): -5.01 mV; Log10 Count Rate [3]: 2.0205
IIIQGK [reference compound] | 10 kcps | – | – | – | – | – | – | Zeta pot. / mV [1]: -7.6 mV; Zeta-Potential / mV ([1]; mean, Figure 7B): -7.56 mV; Log10 Count Rate [3]: 0.9808
IIIK [reference compound] | 26 kcps | – | – | – | – | – | – | Zeta pot. / mV [1]: -3.8 mV; Zeta-Potential / mV ([1]; mean, Figure 7B): -3.82 mV; Log10 Count Rate [3]: 1.413
KIKQIIN [JGA3] | – | -1 (-1 = if < -4 mV) | -11.7 mV | -11.7 mV | – | – | – | Log Count Rate [2, 4]: 1.806; Log Count Rate ([2]; Fig S8 panels B, D): 1.806; Count Rate [2, 5]: 64.03; Zeta Count Rate / kcps [2, 6]: 64.03 kcps; Zeta Count Rate Category ([2]; key not given): 0
CRLRVGVS | 35.07 kcps | – | – | – | – | – | – | Zeta pot. / mV [1]: 10.53 mV; Zeta-Potential / mV ([1]; mean, Figure 6C): 10.53 mV; Log10 Count Rate [2, 7]: 1.545; Log10 Count Rate [2, 8]: 1.545
KIKIQINMWQRGD [VH17-II] | – | 0 (0 = -4mV to 4 mV) | 1.69 mV | 1.69 mV | – | – | – | Zeta Count Rate / kcps [2, 9]: 2783 kcps
KIKIQII [TG1 / (KM4)] | – | 1 (+1 = if > 4 mV) | 5.61 mV | 5.61 mV | 5.61 mV | 1 | 1039 kcps | Zeta Count Rate / kcps [2, 6]: 1039 kcps; Zeta Count Rate / kcps [2, 9]: 1039 kcps; Zeta Count Rate Category ([2]; key not given): 1
KVKVKVQV [JG14 / TG14] | – | 0 (0 = -4mV to 4 mV) | – | -3.41 mV | -3.41 mV | 0 | 94.37 kcps | –
CEFEFQF [KB12] | – | -1 (-1 = if < -4 mV) | -24.5 mV | -13.7 mV | – | – | – | Zeta Count Rate / kcps [2, 6]: 405.4 kcps; Zeta Count Rate Category ([2]; key not given): 1
KIKIQIII [TG7] | – | 1 (+1 = if > 4 mV) | 19.8 mV | 19.8 mV | 19.8 mV | 0 | 94.97 kcps | Zeta Count Rate / kcps [2, 6]: 94.97 kcps; Zeta Count Rate / kcps [2, 9]: 94.97 kcps; Zeta Count Rate Category ([2]; key not given): 0
KVKVQVV [TG2] | – | -1 (-1 = if < -4 mV) | -7.92 mV | -7.92 mV | -7.92 mV | 0 | 27.73 kcps | Zeta Count Rate / kcps [2, 6]: 27.73 kcps; Zeta Count Rate Category ([2]; key not given): 0
KYKYQY [KB1] | – | -1 (-1 = if < -4 mV) | – | -4.2 mV | -4.2 mV | 0 | 31.53 kcps | –
CKIWIQIY | 1842.4 kcps | – | – | – | – | – | – | Zeta-Potential / mV ([1]; mean, Figure 6C): 4.537 mV; Log10 Count Rate [2, 7]: 3.265; Log10 Count Rate [2, 8]: 3.265
HLHLPLL [CN14] | – | -1 (-1 = if < -4 mV) | – | -9.053 mV | -9.053 mV | 1 | 200 kcps | –
CRFRFHFH | 430.2 kcps | – | – | – | – | – | – | Zeta-Potential / mV ([1]; mean, Figure 6C): 19.6 mV; Log10 Count Rate [2, 7]: 2.634; Log10 Count Rate [2, 8]: 2.634
KIKIQIN [JGB3] | – | 0 (0 = -4mV to 4 mV) | 3.34 mV | 3.34 mV | – | – | – | Log Count Rate [2, 4]: 1.638; Log Count Rate ([2]; Fig S8 panels B, D): 1.638; Count Rate [2, 5]: 43.43; Zeta Count Rate / kcps [2, 9]: 43.43 kcps

Substance | Count Rate / kcps [2] | Zeta category ( +1 = if > 4 mV;-1 = if < -4 mV; 0 = -4mV to 4 mV) [1] | Zeta Pot. / mV ([1]; mean, Std in separate column) | Zeta-pot. / mV [1] | Zeta Pot. / mV [1] | Zeta Count Rate Category ([2]; category 1 / 0, no key given) | Zeta Count Rate / kcps [2, 10] | also measured
KAKLTCT | 16.8 kcps | – | – | – | – | – | – | Zeta pot. / mV [1]: -2.2992 mV; Zeta-Potential / mV ([1]; mean, Figure 6C): -2.2992 mV; Log10 Count Rate [2, 7]: 1.225; Log10 Count Rate [2, 8]: 1.225
KFKQFFINMWQ [VH14] | – | 1 (+1 = if > 4 mV) | – | 7.99 mV | 7.99 mV | 1 | 8996 kcps | –
KFQFNMW | 331.6 kcps | – | – | – | – | – | – | Zeta-Potential / mV ([1]; mean, Figure 6C): 8.763 mV; Log10 Count Rate [2, 7]: 2.521; Log10 Count Rate [2, 8]: 2.521
KLKLKLQL [TG16] | – | 1 (+1 = if > 4 mV) | – | 8.39 mV | 8.39 mV | 0 | 42.87 kcps | –
KIWIWIW | 6186.6 kcps | – | – | – | – | – | – | Zeta-Potential / mV ([1]; mean, Figure 6C): 11.33 mV; Log10 Count Rate [2, 7]: 3.791; Log10 Count Rate [2, 8]: 3.791
CRLSLSLS | 1697 kcps | – | – | – | – | – | – | Zeta pot. / mV [1]: 8.977 mV; Zeta-Potential / mV ([1]; mean, Figure 6C): 8.977 mV; Log10 Count Rate [2, 7]: 3.23; Log10 Count Rate [2, 8]: 3.23
KAQCTLP | 97.27 kcps | – | – | – | – | – | – | Zeta pot. / mV [1]: -8.503 mV; Zeta-Potential / mV ([1]; mean, Figure 6C): -8.503 mV; Log10 Count Rate [2, 7]: 1.988; Log10 Count Rate [2, 8]: 1.988
EIEIQINM [TM95 / (TM75)] | – | -1 (-1 = if < -4 mV) | -23.33 mV | -23.33 mV | – | – | – | Zeta Count Rate / kcps [2, 6]: 134 kcps; Zeta Count Rate Category ([2]; key not given): 1
KIKIQINMWWQ [VH11] | – | 1 (+1 = if > 4 mV) | 11.8 mV | 11.8 mV | – | – | – | Zeta Count Rate / kcps [2, 9]: 3893 kcps
KFKFQFNMW [BL5 / KB13] | – | 1 (+1 = if > 4 mV) | 22.6 mV | 22.6 mV | – | – | – | Zeta Count Rate / kcps [2, 9]: 610.2 kcps
KVKVQVVV [TG8] | – | 0 (0 = -4mV to 4 mV) | 0.147 mV | 0.147 mV | 0.147 mV | 1 | 163.1 kcps | Zeta Count Rate / kcps [2, 6]: 163.1 kcps; Zeta Count Rate Category ([2]; key not given): 1
RVHLGLG | 28.33 kcps | – | – | – | – | – | – | Zeta pot. / mV [1]: -6.01 mV; Zeta-Potential / mV ([1]; mean, Figure 6C): -6.01 mV; Log10 Count Rate [2, 7]: 1.4523; Log10 Count Rate [2, 8]: 1.4523
KAKQAANMWQ [JG6] | – | -1 (-1 = if < -4 mV) | – | -12.9 mV | -12.9 mV | 1 | 690.5 kcps | –
KIKIQIW [TM69] | – | 1 (+1 = if > 4 mV) | 12.5 mV | 12.5 mV | 12.5 mV | 1 | 144.9 kcps | Zeta Count Rate / kcps [2, 9]: 144.9 kcps
HHHHKAKAKAKAWWWW [TM8] | – | 1 (+1 = if > 4 mV) | – | 17.4 mV | 17.4 mV | 1 | 658.9 kcps | –
